Assay results published in patent publication US20240181022A1, “AMURINS LYSINS, AND LYSIN-ANTIMICROBIAL PEPTIDE (AMP) CONSTRUCTS ACTIVE AGAINST GRAM-NEGATIVE BACTERIA” (priority 2021, published 2024).
≈ marks a conversion by molar mass, not a printed value. Where no end group is shown, it is not given here. [ ]: non-standard residue; d: D form.

What was measured:
A. xylosoxidans [1] = type: cell-based, Achromobacter xylosoxidans; conditions: for MIC50 / MIC90: A. xylosoxidans isolates; for MIC: A. xylosoxidans test organism of the sputum time-kill assay
Experimental: (§1) MIC values were determined using a modification of the standard broth microdilution reference method defined by the Clinical and Laboratory Standards Institute (CLSI), CLSL. 2015. Methods for Dilution Antimicrobial Susceptibility Tests for Bacteria That Grow Aerobically; Approved Standard-10th Edition. Clinical and Laboratory Standards Institute, Wayne, PA. The modification was based on the replacement of Mueller Hinton Broth with either CAA media (with and without NaCl) or CAA supplemented with 2.5% human serum. MIC is the minimum concentration of peptide sufficient to suppress at least 80% of the bacterial growth compared to control.
(§2) The MICs for were determined as described below using the broth microdilution method for meropenem, GN370, AM1, AM2, and AM3. The results are shown below in Tables 8-12.
The activity of GN370 and AM1 was evaluated against various bacterial isolates, including mucoid and α-hemolytic isolates of P. aeruginosa, MDR isolates, and carbapenem-resistant isolates.

B. gladioli = assay: MIC by broth microdilution against B. gladioli; type: cell-based, Burkholderia gladioli; conditions: B. gladioli isolates
Experimental: as §1
(§3) Based on these nine most prevalent strains, direct lytic agents, including GN370, AM1, AM2, and AM3, were evaluated against various isolates from each of the 9 strains. MICs and MBECs (Example 3) were determined, and a sputum inhibition test was conducted, as described below in Example 5.
as §2

S. maltophilia [2] = conditions: for MIC: S. maltophilia test organism of the sputum time-kill assay
P. apista = assay: MIC by broth microdilution against P. apista; type: cell-based, Pandoraea apista; conditions: P. apista isolates
Experimental: as §1, §3, §2

A. dolens = assay: MIC by broth microdilution against A. dolens; type: cell-based, Achromobacter dolens; conditions: A. dolens isolates
Experimental: as §1, §3, §2

A. xylosoxidans [3] = assay: Time-kill assay in cystic fibrosis patient sputum, A. xylosoxidans; type: cell-based, Achromobacter xylosoxidans
Excerpt: Sputum from 5 cystic fibrosis patients was pooled. The resulting mixture was not filtered, as it was very dense and not amenable to sterilization by filtration. Sputum is known to be a complex mixture of DNA, carbohydrates, and lipids ([…], 2016). As used herein, the term “sputum” refers to the mucus present in the respiratory tract of an animal, such as a human. Sputum may increase in thickness due to the irritation or infection, including bacterial infection, and in some instances, may be expelled by the animal while coughing. In certain instances, cystic fibrosis may be characterized by the presence of a thick, sticky mucus or sputum present in the lungs of cystic fibrosis patients. The activity of GN370, AM1, AM2, AM3, and meropenem was determined in the sputum using a time-kill assay format as disclosed in Zhang et al., Antimicrobial peptide therapeutics for cystic fibrosis, Antimicrobial Agents Chemother. 2005; 49(7):2921-2927. […] Untreated controls were included in addition to pretreatment plating (t=0) for a baseline CFU determination. Activity was also determined in the absence of sputum for comparison to activity observed in the presence of sputum.

M. fortuitum = assay: MIC against M. fortuitum; type: cell-based, Mycobacterium fortuitum; conditions: M. fortuitum (ATCC 6841); CAAT media
M. smegmatis = assay: MIC against M. smegmatis; type: cell-based, Mycobacterium smegmatis; conditions: M. smegmatis (MC 155); CAAT media
M. avium = assay: MIC against M. avium; type: cell-based, Mycobacterium avium; conditions: M. avium (ATCC 700898); CAAT media
S. maltophilia [4] = assay: Serial passage resistance development study, S. maltophilia; type: cell-based, Stenotrophomonas maltophilia; conditions: S. maltophilia, day 28, triplicate
S. maltophilia [5] = system: S. maltophilia
Experimental: (§4) Biofilms are then washed and treated with e.g., a 2-fold dilution series of the lysin in TSBg at e.g., 37° C. for 24 hours. After treatment, wells are washed, air-dried at e.g., 37° C. and stained with e.g., 0.05% crystal violet for 10 minutes.
(§5) The antibiofilm activity of GN370, AM1, AM2, and AM3 was evaluated against various Gram-negative bacteria prevalent in cystic fibrosis patients, including P. aeruginosa, S. maltophilia, and A. xylosoxidans.
(§6) The MBEC (after 2-hour treatments) was determined as described in Jones and Wozniak, PsI Produced by Mucoid Pseudomonas aeruginosa Contributes to the Establishment of Biofilms and Immune Evasion, Am. […] Microbiol.

A. xylosoxidans [6] = system: A. xylosoxidans
Experimental: as §4, §5, §6

B. multivorans = system: B. multivorans
Experimental: as §4, §5, §6

Molecule: C[C@@H](O)[C@H]1C(=O)N2C(C(=O)O)=C(S[C@@H]3CN[C@H](C(=O)N(C)C)C3)[C@H](C)[C@H]12 [meropenem, reference compound]
- MIC50 (A. xylosoxidans [1]): 4 µg/mL (≈ 10.4 µM)
- MIC90 (A. xylosoxidans [1]): > 32 µg/mL
- MIC (A. xylosoxidans [1]): Meropenem (MIC = 0.25)
- MIC50 (B. gladioli): 1 µg/mL (≈ 2.61 µM)
- MIC90 (B. gladioli): 2 µg/mL (≈ 5.22 µM)
- MIC50 (S. maltophilia [2]; S. maltophilia isolates): > 32 µg/mL
- MIC90 (S. maltophilia [2]; S. maltophilia isolates): > 32 µg/mL
- MIC (S. maltophilia [2]): Meropenem (MIC = 32)
- MIC50 (P. apista): > 32 µg/mL
- MIC90 (P. apista): > 32 µg/mL
- MIC Range (P. apista): > 32 µg/mL
- MIC50 (A. dolens): 2 µg/mL (≈ 5.22 µM)
- MIC90 (A. dolens): > 32 µg/mL
- activity in the presence and absence of sputum (A. xylosoxidans [3]): poorly active
- Log10 CFU/mL of sputum (A. xylosoxidans [3]; absence of sputum, 1 hr): 4.9 Log10 CFU/mL of sputum
- Log10 CFU/mL of sputum (A. xylosoxidans [3]; absence of sputum, 3 hr): 5.3 Log10 CFU/mL of sputum
- Log10 CFU/mL of sputum (A. xylosoxidans [3]; absence of sputum, 24 hr): 7.3 Log10 CFU/mL of sputum
- Log10 CFU/mL of sputum (A. xylosoxidans [3]; presence of 10% sputum, 1 hr): 4.78 Log10 CFU/mL of sputum
- Log10 CFU/mL of sputum (A. xylosoxidans [3]; presence of 10% sputum, 3 hr): 4.3 Log10 CFU/mL of sputum
- Log10 CFU/mL of sputum (A. xylosoxidans [3]; presence of 10% sputum, 24 hr): 7.56 Log10 CFU/mL of sputum

Molecule: M[dR]L[dK]MA[dR][dR][dR]Y[dR]LP[dR][dR][dR]S[dR][dR]LFS[dR]TAL[dR]MHP[dR]N[dR]L[dR][dR]IM[dR]GGI[dR]F [AM2]
- MIC (M. fortuitum): 4 µg/mL
- MIC50 (A. xylosoxidans [1]): 2 µg/mL
- MIC90 (A. xylosoxidans [1]): 64 µg/mL
- MIC (A. xylosoxidans [1]): AM2 (MIC = 1)
- MIC50 (B. gladioli): 4 µg/mL
- MIC90 (B. gladioli): 8 µg/mL
- MIC Range (B. gladioli; in µg/mL): 0.016-16
- MIC50 (S. maltophilia [2]; S. maltophilia isolates): 0.5 µg/mL
- MIC90 (S. maltophilia [2]; S. maltophilia isolates): 1 µg/mL
- MIC Range (S. maltophilia [2]; S. maltophilia isolates, in µg/mL): 0.03-2
- MIC (S. maltophilia [2]): AM2 (MIC = 0.5)
- activity (MIC) against S. maltophilia isolates (S. maltophilia [2]; all tested isolates, Tables 8-12): highly active
- MIC50 (P. apista): > 128 µg/mL
- MIC90 (P. apista): > 128 µg/mL
- MIC (M. smegmatis): 0.5 µg/mL
- MIC (M. avium): 1 Tg/mL
- MIC50 (A. dolens): 4 µg/mL
- MIC90 (A. dolens): 8 µg/mL
- MIC Range (A. dolens; in µg/mL): 0.016-16
- change in MIC over serial passage (S. maltophilia [4]): no increase in MIC
- MBEC50 (S. maltophilia [5]): 1 µg/mL
- MBEC90 (S. maltophilia [5]): 2 µg/mL
- MBEC Range (S. maltophilia [5]): 0.125 to 4 µg/mL
- antibiofilm activity (MBEC) against S. maltophilia (S. maltophilia [5]; 2-hour treatments): highly active
- MBEC50 (A. xylosoxidans [6]): 2 µg/mL
- MBEC90 (A. xylosoxidans [6]): 8 µg/mL
- MBEC Range (A. xylosoxidans [6]): 0.125 to 32 µg/mL
- MBEC50 (B. multivorans): 2 µg/mL
- MBEC90 (B. multivorans): 16 µg/mL
- MBEC Range (B. multivorans): 1 to 16 µg/mL
- MBEC50 (P. aeruginosa): 0.25 µg/mL
- MBEC90 (P. aeruginosa): 1 µg/mL
- MBEC Range (P. aeruginosa): 0.016 to 2 µg/mL
- antibiofilm activity (MBEC) against P. aeruginosa (P. aeruginosa; 2-hour treatments): highly active
- effect of sputum on antibacterial activity (A. xylosoxidans [3]; 10% CF sputum vs no sputum): none of GN370, AM1, AM2, and AM3 was inhibited
- Log10 CFU/mL of sputum (A. xylosoxidans [3]; absence of sputum, 1 hr): 3.3 Log10 CFU/mL of sputum
- Log10 CFU/mL of sputum (A. xylosoxidans [3]; absence of sputum, 3 hr): 2.3 Log10 CFU/mL of sputum
- Log10 CFU/mL of sputum (A. xylosoxidans [3]; absence of sputum, 24 hr): 2.3 Log10 CFU/mL of sputum
- Log10 CFU/mL of sputum (A. xylosoxidans [3]; presence of 10% sputum, 1 hr): 2.3 Log10 CFU/mL of sputum
- Log10 CFU/mL of sputum (A. xylosoxidans [3]; presence of 10% sputum, 3 hr): 2.3 Log10 CFU/mL of sputum
- Log10 CFU/mL of sputum (A. xylosoxidans [3]; presence of 10% sputum, 24 hr): 2.3 Log10 CFU/mL of sputum
- killing by 1 hour, maintained at 24 hours (A. xylosoxidans [3]; time-kill): complete killing
